Laboratory results as given in patent publication US4372948A, “Derivative of saccharide and physiologically active agent containing the same” (Kureha Kagaku Kogyo Kabushiki Kaisha, priority 1980, dated 1983).

Assays:
Sarcoma-180 = experiment: Anti-tumour activity against Sarcoma-180; type: in vivo, mouse (ICR-JCL); conditions: Mus musculus, Sarcoma-180, po, 600 h, 10 times every other day, tumour weight on 25th day, read-out: Antitumour activity, inhibiting rate (I.R.)
Protocol: Sarcoma-180 was transplanted into the axillary part of ICR-JCL mice at a rate of 1×10^6 cells/animal, and after 24 hours of transplantation, each of the present compounds as a solution or dispersion in sterilized physiological saline solution was orally administered to each of the transplanted mice 10 times every other day at a dose of 500 mg/kg/time. On 25th day of the transplantation, tumour node(s) were extirpated from all the mice to determine the weight of the tumour nodes.
Antitumour activity (activity of inhibiting the proliferation of the transplanted sarcoma) of each of the present compounds was derived by the following formula and shown in Table 6:
Antitumour activity (Inhibiting rate, I.R.)=(1-T/C)×100(%).
T represents the total weight of tumour nodes of the group of mice transplanted and administered with the present compound, and
C represents the total weight of tumour nodes of the group of mice transplanted, however, not administered with any agents.

acetic acid writhing = experiment: Analgetic activity against chemical stimulation of acetic acid (writhing); type: in vivo, mouse (ICR female); conditions: Mus musculus, po, 30 min before 0.6% acetic acid, read-out: I.R. of writhing
Description: (§1) Rate of inhibition (I.R.) (%)=(1-T/C)×100
T represents the average number of writhing of the group of mice administered with the present compound and injected with acetic acid, and C represents the average number of writhing of the group of mice only injected with acetic acid (control).

beta-lipoprotein = experiment: Anti-hyperlipemia activity, beta-lipoprotein in blood; type: in vivo, rabbit (Japanese white male); conditions: oral, 300 mg/kg once
Protocol: (§2) Japanese white male rabbits were fed for 3 months with a solid diet containing 1% of cholesterol taken ad lib, and after confirming the raised lipid content of the serum of the rabbits, they were utilized as model animals suffering from experimental arteriosclerosis. Each of the present compounds was administered orally as a solution or dispersion in distilled water to the experimental animals of each group at a dose rate of 300 mg/kg once, and blood samples were taken at a predetermined time interval from the auricular vein of each animal. The content of cholesterol in the blood specimen was traced as the time passed by, with an enzymatic method, and the content of beta-lipoprotein in the same blood specimen was traced with a colorimetry. Each value in Table 7 is the difference between the level just before administration and the level after 3 or 6 hours of the administration.

exudation = experiment: Anti-exudation activity (air pouch, croton oil); type: in vivo, rat; conditions: Rattus norvegicus, po, 144 h, 5 days, read-out: I.R. against exudation
Protocol: Following the method of Baris et al. (1965), air was injected subcutaneously into the back of groups of rats, each group consisting of 6 animals to make an air pouch, and 0.5 ml of sesame oil containing 1% by weight of croton oil was injected into the air pouch. Each of the present compounds was orally administered forcibly to each of the groups of rats as a solution or dispersion in distilled water at a dose rate of 1000 mg/kg/day for continued five days. The amount of liquid exudated into the air pouch was measured on 6th day of the operation. The rate of inhibiting the exudation of the liquid was obtained by the same manner as in (5-2) and the results are shown also in Table 8.

total cholesterol = experiment: Anti-hyperlipemia activity, total cholesterol in blood; type: in vivo, rabbit (Japanese white male); conditions: oral, 300 mg/kg once; for Reduction of cholesterol level after 3 hrs.: negative = raising
Protocol: as §2

[1] = tested on: pyrexia (Saccharomyces cerevisiae); experiment: Anti-pyrexia activity (yeast-induced); type: in vivo; conditions: Rattus norvegicus, oral, read-out: Rate of inhibiting pyrexia (I.R.)
Protocol: Following the method of Winter et al. (1961), an aqueous dispersion of 20% by weight of Saccharomyces cerevisiae was subcutaneously injected into groups of rats, each group consisting of 6 animals, and after 10-hour fasting, 1000 mg/kg of each of the present compounds was orally administered to the rat as a solution of dispersion in distilled water, and then the rectal temperature of the rat was measured at a predetermined interval of time to find the lowest temperature.
The anti-pyrexia activity of each compound was obtained from the following formula: […]
Anti-pyrexia activity represented by the rate of inhibition (I.R.)
C2 represents the average rectal temperature of negative control (non-treatment), not injected with the yeast and not administered with the present compound,
C1 represents the average temperature of positive control, injected with the yeast and not administered with the compound and T represents the temperature of tested animals, injected with the yeast and administered with the present compound.

carrageenin edema = experiment: Anti-Carrageenin edema activity; type: in vivo, rat; conditions: Rattus norvegicus, po, 1000 mg/kg once, read-out: I.R. against carrageenin edema
Protocol: After orally administering each of the present compounds forcibly to each group of rats, composed of 10 animals, as a solution or dispersion in distilled water at a dose of 1000 mg/kg once, 0.1 ml of an aqueous dispersion of 1% carrageenin in aqueous physiological saline solution was injected into the foot pad of the right hind leg of the administered animal following Van Arman et al. (1963). Thereafter, the thickness of the foot pad was measured at a time interval to find the rate of inhibiting of the swelling of the foot pad according to the following formula:
as §1
T means the average volume of the foot pad of the animals administered with one of the present compounds and carrageenin, and
C means that of the animal not administered with the present compound, however, administered with carrageenin.

in vivo = conditions: mouse, in vivo, po, mice, 7 days observation, read-out: LD50, acute oral toxicity
blood pressure = experiment: Anti-hypertension activity (reduction of blood pressure); type: in vivo, rat (spontaneous hypertension); conditions: oral, 300 mg/kg
Protocol: Rats of spontaneous hypertension were orally administered with each of the present compounds as a solution or dispersion in distilled water at a dose rate of 300 mg/kg body weight. After 3 and 6 hours of the administration, the blood pressure of each rat was determined, and the difference between the above-determined value and the value just before the administeration was used as the index of the activity of reducing the blood pressure of the compound.

level of blood sugar = experiment: Anti-hyperglycemia activity (reduction of blood sugar level); type: in vivo, rat (Wistar, streptozotocin); conditions: oral, 300 mg/kg
Protocol: A group of Wistar rats to which at first streptozotocin was interperitoneally administered at a rate of 60 mg/kg and of which the positivity of glycosuria was confirmed after a week of the administration and to which regular insulin was further administered and of which the reduction of levels of glucose in urine and blood was once confirmed, however, of which hyperglycemia and hyperglycosuria were again confirmed after a few days was chosen and used as model animals of glycosuria in the following test. After orally administering each of the present compounds to the model animals at a dose of 300 mg/kg body weight, as a solution or dispersion in distilled water, the blood was collected two times, respectively after 3 and 6 hours of the administration.

[2] = tested on: pseudo-escaping reaction to tail pressure; experiment: Analgetic activity against mechanical stimulation of pressure; type: in vivo, mouse (ICR female); conditions: oral, 1000 mg/kg
cotton pellet granuloma = experiment: Anti-granuloma activity (cotton pellet); type: in vivo, rat; conditions: Rattus norvegicus, po, 192 h, 7 days, read-out: I.R. against cotton pellet edema
Protocol: Following the method of Winter et al. (1963), each two cotton wool pellets, each weighing 30±1 mg, were implanted into the back of each rats of groups of rats, each group consisting of 6 animals, at the positions of mutually symmetrical concerning the median line of the rat. To these groups of the thus operated rats, the present compounds were respectively administered orally and forcibly as a solution or dispersion in distilled water for 7 continuous days, once a day at a dose of 1000 mg/kg/day. On 8th day of the implantation, the granuloma was extirpated and the dry weight of the granuloma was measured, the rate of inhibiting the proliferation of granuloma being obtained as in (5-1) being shown in Table 8.

| Compound | inhibition in vivo at 500 mg/kg (Sarcoma-180) [%] | inhibition in vivo at 1000 mg/kg (acetic acid writhing) [%] | Reduction of beta-lipoprotein level after 3 hrs. (beta-lipoprotein) [mg/dL] | Reduction of beta-lipoprotein level after 6 hrs. (beta-lipoprotein) [mg/dL] | inhibition in vivo at 1000 mg/kg/day (exudation) [%] | Reduction of cholesterol level after 3 hrs. (total cholesterol) [mg/dL] | Reduction of cholesterol level after 6 hrs. (total cholesterol) [mg/dL] | inhibition in vivo at 1000 mg/kg [1] [%] | inhibition in vivo at 1000 mg/kg (carrageenin edema) [%] | LD50 at 168 h (in vivo) [mg/kg] | Reduced level of blood pressure after 3 hrs. (blood pressure) [mm Hg] | Reduced level of blood pressure after 6 hrs. (blood pressure) [mm Hg] | Reduced level of blood sugar after 3 hrs. (level of blood sugar) [mg/dL] | Reduced level of blood sugar after 6 hrs. (level of blood sugar) [mg/dL] | Pseudo-escapting reaction pressure [2] [mmHg] | Pseudo-escapting reaction time [2] [s] | inhibition in vivo at 1000 mg/kg/day (cotton pellet granuloma) [%] |
| --- | --- | --- | --- | --- | --- | --- | --- | --- | --- | --- | --- | --- | --- | --- | --- | --- | --- |
| C[C@@H]1OC(Nc2ccc(C(N)=O)cc2)[C@H](O)[C@H](O)[C@H]1O (stereo partly drawn) [Compound 5, p-aminobenzoic acid amide-N-L-rhamnoside] | 39 | 52 | 134 | 148 | 12.4 | -1 | 32 | 59 | 4.2 | 10500 | 17 | 18 | 91 | 128 | 90 | 41 | 16.8 |
| C[C@@H]1OC(Nc2ccccc2C(=O)Oc2ccccc2)[C@H](O)[C@H](O)[C@H]1O (stereo partly drawn) [Compound 6, phenyl o-aminobenzoate-N-L-rhamnoside] | 44 | 37 | 152 | 155 | 19 | 4 | 57 | 69 | 7.6 | > 15000 | 22 | 23 | 121 | 146 | 98 | 43 | 20.5 |
| O=C(Oc1ccccc1)c1cccc(NC2O[C@H](CO)[C@@H](O)[C@H](O)[C@@H]2O)c1 (stereo partly drawn) [Compound 7, phenyl m-aminobenzoate-N-D-mannoside] | 49 | 46 | 141 | 150 | 7.5 | -2 | 62 | 31 | 5.9 | 14800 | 24 | 26 | 144 | 159 | 95 | 44 | 25.3 |
| O=C(Oc1ccccc1)c1ccc(NC2OC[C@@H](O)[C@H](O)[C@H]2O)cc1 (stereo partly drawn) [Compound 8, phenyl p-aminobenzoate-N-D-xyloside] | 53 | 20 | 128 | 144 | 15.7 | 6 | 46 | 47 | 21.4 | 13500 | 18 | 20 | 106 | 140 | 80 | 39 | 5.6 |
| O=C(Oc1ccccc1)c1ccc(NC2O[C@H](CO)[C@@H](O[C@@H]3O[C@H](CO)[C@@H](O)[C@H](O)[C@H]3O)[C@H](O)[C@H]2O)cc1 (stereo partly shown) [Compound 9, phenyl p-aminobenzoate-N-cellobioside] | 40 | 28 | 126 | 136 | 18.8 | -1 | 40 | 32 | 3.7 | > 15000 | 25 | 28 | 85 | 121 | 86 | 38 | 7.9 |
